# Source: patent publication US10940139B2, “Compounds that interact with the Ras superfamily for the treatment of cancers, inflammatory diseases, rasopathies, and fibrotic disease” (Shy Therapeutics LLC, priority 2017, dated 2021)
# How the values were obtained:
# [1] = tested on: IL6 production in RAW 264.7 macrophage cell line; test: Mouse IL6 quantification assay (LPS-stimulated macrophages, ELISA); assay type: cell-based; details: RAW264.7, RAW 264.7 murine leukemia virus transformed macrophage cell lines, LPS stimulation, read-out: IL-6 % Inhibition at 30 μM
# [2] = tested on: TNFα production in RAW 264.7 macrophage cell line; test: Mouse TNF alpha quantification assay (LPS-stimulated macrophages, ELISA); assay type: cell-based; details: RAW264.7, RAW 264.7 murine leukemia virus transformed macrophage cell lines, LPS stimulation, read-out: TNF-α % Inhibition at 30 μM
SMILES,inhibition at 30 µM [1] [%],inhibition at 30 µM [2] [%]
Oc1nc(-c2ccccn2)nc2c(-c3ccccc3)csc12 [drawing 2120],76 to 100,51 to 75
Oc1nc(-c2ccccn2)nc2c(-c3ccccc3Cl)csc12 [drawing 2121],76 to 100,76 to 100
Oc1nc(-c2ccccn2)nc2[nH]cnc12 [drawing 2122],76 to 100,76 to 100
Oc1nc(-c2ccccn2)nc2c1ncn2-c1ccccc1 [drawing 2123],1 to 25,0
Oc1nc(-c2ccccn2)nc2c1ncn2-c1ccccn1 [drawing 2124],26 to 50,0
N#Cc1ccc(CC(=O)Nc2ccnc(-c3ccccn3)n2)cc1 [drawing 2125],1 to 25,1 to 25
Brc1csc2nc(-c3ccccn3)nc(N3CCOCC3)c12 [drawing 2126],51 to 75,0
c1ccc(-c2nc(N3CCOCC3)c3ccsc3n2)nc1 [drawing 2127],1 to 25,1 to 25
Oc1nc(-c2ccccn2)nc2scc(Br)c12 [drawing 2128],76 to 100,76 to 100
c1ccc(-c2nc(NCC3CCCO3)c3ccsc3n2)nc1 (stereo not drawn) [drawing 2129],51 to 75,1 to 25
CCN(CC)CCC(C)Nc1nc(-c2ccccn2)nc2sccc12 (stereo not drawn) [drawing 2130],1 to 25,0
O=C1CN(c2nc(-c3ccccn3)nc3scc(-c4ccccc4)c23)CCN1CCO [drawing 2131],1 to 25,1 to 25
N#Cc1ncn(-c2nc(-c3ccccn3)nc3sc(-c4ccccc4)cc23)n1 [drawing 2132],76 to 100,76 to 100
Cc1nnc(C(Nc2nc(-c3ccccn3)nc3scc(-c4ccccc4)c23)c2ccccc2)n1C (stereo not drawn) [drawing 2133],76 to 100,76 to 100
Cc1sc2nc(-c3ccccn3)nc(NCCc3nccn3C)c2c1-c1ccccc1 [drawing 2134],1 to 25,0
CCCNC(=O)CN1CCN(c2nc(-c3ccccn3)nc3sc(-c4ccccc4)cc23)CC1 [drawing 2135],76 to 100,76 to 100
CC(Nc1nc(-c2ccccn2)nc2scc(-c3ccccc3)c12)c1nncn1C (stereo not drawn) [drawing 2138],1 to 25,1 to 25
c1ccc(-c2csc3nc(-c4ccccn4)nc(N4CCN(Cc5cccnc5)CC4)c23)cc1 [drawing 2139],76 to 100,51 to 75
c1ccc(-c2csc3nc(-c4ccccn4)nc(N4CCN(CC5CCCO5)CC4)c23)cc1 (stereo not drawn) [drawing 2140],51 to 75,26 to 50
CN(Cc1cnn(C)c1)c1nc(-c2ccccn2)nc2scc(-c3ccccc3)c12 [drawing 2141],76 to 100,26 to 50
CN(CCCc1n[nH]c(N)c1C#N)c1nc(-c2ccccn2)nc2sc(-c3ccccc3)cc12 [drawing 2142],76 to 100,51 to 75
O=C(CN1CCN(c2nc(-c3ccccn3)nc3sc(-c4ccccc4)cc23)CC1)N1CCCC1 [drawing 2143],76 to 100,76 to 100
CNC(=O)CN1CCN(c2nc(-c3ccccn3)nc3scc(-c4ccccc4)c23)CC1 [drawing 2144],1 to 25,1 to 25
O=S1(=O)CCC(N2CCN(c3nc(-c4ccccn4)nc4scc(-c5ccccc5)c34)CC2)C1 (stereo not drawn) [drawing 2145],1 to 25,1 to 25

SMILES,inhibition at 30 µM [1] [%],inhibition at 30 µM [2] [%]
CON(C)c1nc(-c2ccccn2)nc2scc(-c3ccccc3)c12 [drawing 2147],26 to 50,1 to 25
O=C(CN1CCN(c2nc(-c3ccccn3)nc3scc(-c4ccccc4)c23)CC1)N1CCCCC1 [drawing 2148],26 to 50,1 to 25
O=C(CNc1nc(-c2ccccn2)nc2scc(-c3ccccc3)c12)NC1CC1 [drawing 2149],26 to 50,26 to 50
CCN(CC)C(=O)CN1CCN(c2nc(-c3ccccn3)nc3scc(-c4ccccc4)c23)CC1 [drawing 2150],76 to 100,51 to 75
CC(C)CNC(=O)CN1CCN(c2nc(-c3ccccn3)nc3scc(-c4ccccc4)c23)CC1 [drawing 2151],76 to 100,26 to 50
O=S1(=O)CCC(Nc2nc(-c3ccccn3)nc3scc(-c4ccccc4)c23)C1 (stereo not drawn) [drawing 2152],1 to 25,0
c1ccc(-c2csc3nc(-c4ccccn4)nc(N4CCN(CCN5CCCC5)CC4)c23)cc1 [drawing 2153],26 to 50,0
OC1CCCN(c2nc(-c3ccccn3)nc3scc(-c4ccccc4)c23)C1 (stereo not drawn) [drawing 2154],26 to 50,1 to 25
c1ccc(-c2csc3nc(-c4ccccn4)nc(N4CCOCC4)c23)cc1 [drawing 2155],1 to 25,1 to 25
OC1CCN(c2nc(-c3ccccn3)nc3scc(-c4ccccc4)c23)CC1 [drawing 2156],26 to 50,1 to 25
O=C(CN1CCN(c2nc(-c3ccccn3)nc3scc(-c4ccccc4)c23)CC1)N1CCCC1 [drawing 2157],1 to 25,1 to 25
O=C(CN1CCN(c2nc(-c3ccccn3)nc3scc(-c4ccccc4)c23)CC1)NC1CC1 [drawing 2158],76 to 100,26 to 50
c1ccc(-c2csc3nc(-c4ccccn4)nc(NN4CCOCC4)c23)cc1 [drawing 2159],51 to 75,26 to 50
NC(=O)C1CCCN(c2nc(-c3ccccn3)nc3scc(-c4ccccc4)c23)C1 (stereo not drawn) [drawing 2160],1 to 25,1 to 25
COCCNc1nc(-c2ccccn2)nc2scc(-c3ccccc3)c12 [drawing 2161],76 to 100,76 to 100
CC(=O)N1CCN(c2nc(-c3ccccn3)nc3scc(-c4ccccc4)c23)CC1 [drawing 2162],26 to 50,26 to 50
O=C1CCN(c2nc(-c3ccccn3)nc3scc(-c4ccccc4)c23)CC1 [drawing 2163],1 to 25,1 to 25
NC(=O)C1CCN(c2nc(-c3ccccn3)nc3scc(-c4ccccc4)c23)CC1 [drawing 2164],1 to 25,1 to 25
Cc1sc2nc(N)nc(O)c2c1C [drawing 2165],1 to 25,1 to 25
COc1ccnc(-c2nc(O)c3ccsc3n2)c1 [drawing 2166],1 to 25,1 to 25
COc1cccc(N2CCN(C(=O)c3csc4c(O)nc(-c5ccccn5)nc34)CC2)c1 [drawing 2167],26 to 50,0
Cc1ccccc1N1CCN(C(=O)c2csc3c(O)nc(-c4ccccn4)nc23)CC1 [drawing 2168],51 to 75,1 to 25
O=C(c1csc2c(O)nc(-c3ccccn3)nc12)N1CCN(Cc2cccc(O)c2)CC1 [drawing 2169],26 to 50,1 to 25
O=C(c1csc2c(O)nc(-c3ccccn3)nc12)N1CCOC(c2cccc(F)c2)C1 (stereo not drawn) [drawing 2170],26 to 50,1 to 25
